Literature values in patent US7083961B1 (priority 2002, dated 2006).

Biological target: T. foetus IMPDH (Tritrichomonas foetus, UniProt P50097)
Conditions: T. foetus enzyme, without cofactor bound

Sequence of T. foetus IMPDH (P50097 whole entry): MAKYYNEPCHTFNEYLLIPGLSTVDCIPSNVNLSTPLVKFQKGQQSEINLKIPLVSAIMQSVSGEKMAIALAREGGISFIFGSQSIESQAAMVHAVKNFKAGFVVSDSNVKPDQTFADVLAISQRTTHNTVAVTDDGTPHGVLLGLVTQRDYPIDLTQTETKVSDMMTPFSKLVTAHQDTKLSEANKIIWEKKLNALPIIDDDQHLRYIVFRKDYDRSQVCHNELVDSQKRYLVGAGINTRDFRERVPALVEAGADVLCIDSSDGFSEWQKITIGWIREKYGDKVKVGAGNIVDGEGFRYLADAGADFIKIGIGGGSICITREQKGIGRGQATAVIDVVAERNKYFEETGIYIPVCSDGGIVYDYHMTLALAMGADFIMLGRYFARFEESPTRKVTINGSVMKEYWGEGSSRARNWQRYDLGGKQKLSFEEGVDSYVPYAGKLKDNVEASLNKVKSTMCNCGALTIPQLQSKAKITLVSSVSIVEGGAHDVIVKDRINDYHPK

O=c1[nH]c(=O)c2ncn([C@@H]3O[C@H](COP(=O)(O)O)[C@@H](O)[C@H]3O)c2[nH]1 [XMP, xanthosine monophosphate]
off-rate: 17 s⁻¹
